Where a name gives a salt, the structure may show the parent alone.
Tested on: not given
Test: not given
Settings: not given

Row | melting point [°C] | SMILES
1 | > 220 | Cc1ccc2c(oc3c(CSC(=N)N)c(C)ccc32)c1CSC(=N)N (as salt: hydrobromid) [Example 1.3, (3,7-dimethyldibenzo[b,d]furan-4,6-diyl)bis(methylene) dicarbamimidothioate dihydrobromide]
2 | > 220 | N=C(N)SCc1cccc2c1oc1c(CSC(=N)N)cc(F)cc12 (as salt: hydrobromid) [Example 1.6, (2-fluorodibenzo[b,d]furan-4,6-diyl)bis(methylene) dicarbamimidothioate dihydrobromide]
3 | > 220 | N=C(N)SCc1cc(Br)cc2c1oc1c(CSC(=N)N)cc(Br)cc12 (as salt: hydrobromid) [Example 1.7, (2,8-dibromodibenzo[b,d]furan-4,6-diyl)bis(methylene) dicarbamimidothioate dihydrobromide]
4 | > 250 | N=C(N)SCc1cccc2cc3cccc(CSC(=N)N)c3cc12 (as salt: hydrobromid) [Example 1.9, anthracene-1,8-diylbis(methylene) dicarbamimidothioate dihydrobromide]
5 | > 230 | N=C(N)SCc1cccc2c1sc1c(CSC(=N)N)cc(F)cc12 (as salt: hydrobromid) [Example 1.10, (2-fluorodibenzo[b,d]thiophene-4,6-diyl)bis(methylene) dicarbamimidothioate dihydrobromide]
6 | > 230 | N=C(N)SCc1cccc2c1Oc1c(CSC(=N)N)cccc1S2 (as salt: hydrobromid) [Example 1.12, phenoxathiine-4,6-diylbis(methylene) dicarbamimidothioate dihydrobromide]
7 | 228 to 230 | N=C(N)SCc1cccc2sc3cccc(CSC(=N)N)c3c12 (as salt: hydrobromid) [Example 1.14, dibenzo[b,d]thiophene-1,9-diylbis(methylene) dicarbamimidothioate dihydrobromide]

Target: T1, DMT1 (Homo sapiens, UniProt P49281)
T1 sequence (P49281 1-568): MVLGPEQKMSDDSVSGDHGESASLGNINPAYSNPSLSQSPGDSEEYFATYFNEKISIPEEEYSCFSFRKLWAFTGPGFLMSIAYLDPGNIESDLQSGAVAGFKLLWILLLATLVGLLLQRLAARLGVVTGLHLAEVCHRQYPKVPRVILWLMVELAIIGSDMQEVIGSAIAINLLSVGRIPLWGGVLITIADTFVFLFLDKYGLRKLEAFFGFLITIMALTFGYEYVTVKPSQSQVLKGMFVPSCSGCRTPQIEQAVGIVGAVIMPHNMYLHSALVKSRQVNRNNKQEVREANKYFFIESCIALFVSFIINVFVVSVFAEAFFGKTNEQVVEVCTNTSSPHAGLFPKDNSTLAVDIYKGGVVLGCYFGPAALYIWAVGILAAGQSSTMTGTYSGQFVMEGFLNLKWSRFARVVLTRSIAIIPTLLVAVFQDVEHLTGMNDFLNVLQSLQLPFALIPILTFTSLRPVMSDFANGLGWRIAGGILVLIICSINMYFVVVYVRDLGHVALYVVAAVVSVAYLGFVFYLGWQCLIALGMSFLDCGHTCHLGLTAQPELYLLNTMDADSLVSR
Test: DMT1 Activity Assay (in vitro)
Type: cell-based
Settings: read-out: IC50 Activity Level
Source text: In particular, identification of the compounds of the invention ability to modulate, preferably to inhibit, DMT1 activity, can be assessed using a variety of in vitro and in vivo assays, for measuring uptake of reduced iron (Fe^2+). One such protocol involves the screening of chemical agents for ability to modulate the activity of DMT1 thereby identifying it as a modulating agent. The in vitro activity of DMT1 can be measured in cell based assays by either directly measuring iron flux (using a radioactively labelled iron ^55Fe) or by measuring the fluorescence of a cell permeable iron fluorophore such as calcein. Stable cell lines overexpressing DMT1 are exposed to ^55Fe or loaded with calcein and then compound is applied. […] Alternatively, in another format electrophysiological techniques can be used to measure the current or iron or other metals traversing the cell membrane with DMT1 in a Xenopus oocyte or other cell based system (Gunshin et al., Nature, 1997, 31; 388(6641):482-8).
This example discloses various in vitro assay for testing and profiling test agents against DMT1 stably expressed in cells of either an endogenous or recombinant origin. These assays can use stable cell lines overexpressing DMT1 or intestinal cells and intestinal tissue expressing endogenous DMT1. DMT1 function could also be assessed in other cell types that express DMT1. Of greatest relevance would be the erythrocytes (e.g. K562 cells) or hepatocytes (e.g. […]).
DMT1 function can be assessed in a number of ways, including monitoring fluorescence changes of an iron fluorophore (e.g. calcein), monitoring uptake of radiolabelled iron (^55Fe or ^59Fe) (Picard et al., J. Biol. Chem., 2000, 275(46):35738-45 and Wetli et al., Chem. Biol. 2006 September; 13(9):965-72), or by assessing the current or transport of iron and other metals into the cells or tissues using standard electrophysiological techniques (Gunshin et al., Nature, 1997, 388(6641):482-8.).
Variations of these assays involve alterations of incubation times, the iron status of the cells and tissues (which may be modulated by chemical chelators or by harvesting from iron deficient animals), the metal cation detected and the pH of the reaction can generally be made by conventional techniques known to those skilled in the art.

Row | IC50 [nM] | SMILES
8 | 100 to 1000 | N=C(N)SCc1cccc2c1sc1c(CSC(=N)N)cccc12 [Example 1, dibenzo[b,d]thiophene-4,6-diylbis(methylene) dicarbamimidothioate dihydrobromide]
9 | 100 to 1000 | N=C(N)SCc1c(Br)ccc2c1sc1c(CSC(=N)N)c(Br)ccc12 [Example 1.1, (3,7-dibromodibenzo[b,d]thiophene-4,6-diyl)bis(methylene) dicarbamimidothioate dihydrobromide]
10 | 100 to 1000 | N=C(N)SCc1cccc2c1sc1c(CSC(=N)N)c(Br)ccc12 [Example 1.2, (3-bromodibenzo[b,d]thiophene-4,6-diyl)bis(methylene) dicarbamimidothioate dihydrobromide]
11 | 100 to 1000 | Cc1ccc2c(oc3c(CSC(=N)N)c(C)ccc32)c1CSC(=N)N [Example 1.3, (3,7-dimethyldibenzo[b,d]furan-4,6-diyl)bis(methylene) dicarbamimidothioate dihydrobromide]
12 | 10 to 100 | N=C(N)SCc1c(F)ccc2c1oc1c(CSC(=N)N)c(F)ccc12 [Example 1.4, (3,7-difluorodibenzo[b,d]furan-4,6-diyl)bis(methylene) dicarbamimidothioate dihydrobromide]
13 | 100 to 1000 | N=C(N)SCc1c(Cl)ccc2c1oc1c(CSC(=N)N)c(Cl)ccc12 [Example 1.5, (3,7-dichlorodibenzo[b,d]furan-4,6-diyl)bis(methylene) dicarbamimidothioate]
14 | 10 to 100 | N=C(N)SCc1cccc2c1oc1c(CSC(=N)N)cc(F)cc12 [Example 1.6, (2-fluorodibenzo[b,d]furan-4,6-diyl)bis(methylene) dicarbamimidothioate dihydrobromide]
15 | 10 to 100 | N=C(N)SCc1cc(Br)cc2c1oc1c(CSC(=N)N)cc(Br)cc12 [Example 1.7, (2,8-dibromodibenzo[b,d]furan-4,6-diyl)bis(methylene) dicarbamimidothioate dihydrobromide]
16 | 10 to 100 | N=C(N)SCc1cccc2c1oc1c(CSC(=N)N)cccc12 [Example 1.8, dibenzo[b,d]furan-4,6-diylbis(methylene) dicarbamimidothioate dihydrobromide]
17 | 100 to 1000 | N=C(N)SCc1cccc2cc3cccc(CSC(=N)N)c3cc12 [Example 1.9, anthracene-1,8-diylbis(methylene) dicarbamimidothioate dihydrobromide]
18 | 100 to 1000 | N=C(N)SCc1cccc2c1sc1c(CSC(=N)N)cc(F)cc12 [Example 1.10, (2-fluorodibenzo[b,d]thiophene-4,6-diyl)bis(methylene) dicarbamimidothioate dihydrobromide]
19 | 10 to 100 | N=C(N)SCc1cc(F)cc2c1sc1c(CSC(=N)N)cc(Cl)cc12 [Example 1.11, (2-chloro-8-fluorodibenzo[b,d]thiophene-4,6-diyl)bis(methylene) dicarbamimidothioate dihydrobromide]
20 | 100 to 1000 | N=C(N)SCc1cccc2c1Oc1c(CSC(=N)N)cccc1S2 [Example 1.12, phenoxathiine-4,6-diylbis(methylene) dicarbamimidothioate dihydrobromide]
21 | 100 to 1000 | N=C(N)SCc1c(Br)ccc2c1oc1c(CSC(=N)N)c(Br)ccc12 [Example 1.13, (3,7-dibromodibenzo[b,d]furan-4,6-diyl)bis(methylene) dicarbamimidothioate dihydrobromide]
22 | ≥ 1000 | N=C(N)SCc1cccc2sc3cccc(CSC(=N)N)c3c12 [Example 1.14, dibenzo[b,d]thiophene-1,9-diylbis(methylene) dicarbamimidothioate dihydrobromide]
23 | ≥ 1000 | N=C(N)SCc1cccc2c1-c1c(CSC(=N)N)cccc1C2=O [Example 1.15, (9-oxo-9H-fluorene-4,5-diyl)bis(methylene) dicarbamimidothioate dihydrobromide]
24 | ≥ 1000 | N=C(N)SCc1cccc2c(=O)c3cccc(CSC(=N)N)c3oc12 [Example 1.16, (9-oxo-9H-xanthene-4,5-diyl)bis(methylene) dicarbamimidothioate dihydrobromide]
25 | ≥ 1000 | Cc1c2cccc(CSC(=N)N)c2nc2c(CSC(=N)N)cccc12 [Example 1.17, (9-methylacridine-4,5-diyl)bis(methylene) dicarbamimidothioate dihydrobromide]
26 | 100 to 1000 | N=C(N)SCc1cccc2cc3cccc(CSC(=N)N)c3nc12 [Example 1.18, acridine-4,5-diylbis(methylene) dicarbamimidothioate dihydrobromide]
27 | ≥ 1000 | N=C(N)SCc1cccc2c1-c1c(cccc1CSC(=N)N)CSC2 [Example 1.19, (5,7-dihydrodibenzo[c,e]thiepine-1,11-diyl)bis(methylene) dicarbamimidothioate dihydrobromide]
28 | 100 to 1000 | N=C(N)SCc1cccc2c1C(=O)c1c(CSC(=N)N)cccc1-2 [Example 2, (9-oxo-9H-fluorene-1,8-diyl)bis(methylene) dicarbamimidothioate dihydrobromide]
29 | 10 to 100 | N=C(N)SCc1cccc2c1-c1c(CSC(=N)N)cccc1-2 [Example 2.1, biphenylene-1,8-diylbis(methylene)dicarbamimidothioate dihydrobromide]
30 | 100 to 1000 | N=C(N)SCc1ccc(CSC(=N)N)c2c1-c1c(CSC(=N)N)ccc(CSC(=N)N)c1-2 [Example 3, biphenylene-1,4,5,8-tetrayltetrakis(methylene) tetracarbamimidothioate tetrahydrobromide]
31 | ≥ 1000 | CC(C)(C)c1cc(CSC(=N)N)c2c(c1)C(C)(C)c1cc(C(C)(C)C)cc(CSC(=N)N)c1O2 [Example 4, (2,7-di-tert-butyl-9,9-dimethyl-9H-xanthene-4,5-diyl)bis(methylene) dicarbamimidothioate dihydrobromide]
32 | 10 to 100 | N=C(N)SCc1cc(F)cc2c1-c1c(CSC(=N)N)cc(F)cc1-2 [Example 5, (3,6-difluorobiphenylene-1,8-diyl)bis(methylene) dicarbamimidothioate dihydrobromide]
